One experiment concerns U937 cells. In words: U937 cell inhibition assay (WST-1 cell viability). To be noted: Homo sapiens, U-937; U937 cells; IC50 allocated to ranges; read-out: U937 activity. Format: cell-based. The procedure:
(§1) Cancer cell lines (U937 and HUT) growing in log phase were harvested and seeded at 1000-2000 cells/well (100 μl final volume) into 96-well tissue culture plates. Following 24 h of growth cells were treated with Compound. Plates were then re-incubated for a further 72-96 h before a WST-1 cell viability assay was conducted according to the suppliers (Roche Applied Science) instructions.
(§2) Data were expressed as a percentage inhibition of the control, measured in the absence of inhibitor, as follows: % inhibition=100−[(S^i/S^o)×100] where S^i is the signal in the presence of inhibitor and S^o is the signal in the presence of DMSO.
(§3) Dose response curves were generated from 8 concentrations (top final concentration 10 μM, with 3-fold dilutions), using 6 replicates.
(§4) IC50 values were determined by non-linear regression analysis, after fitting the results to the equation for sigmoidal dose response with variable slope (% activity against log concentration of Compound), using Graphpad Prism software.
On the technique in general: Tetrazolium assays rely on reduction of a dye to a coloured formazan, in cell work by metabolically active cells.

The next experiment has as its system HUT78 cells. In words: HUT cell inhibition assay (WST-1 cell viability). Type of experiment: cell-based. The settings on record: Homo sapiens; HUT78 cells; IC50 allocated to ranges; read-out: HUT activity. Here is the method:
as §1, §2, §3, §4

Experiment [1] concerns the target histone deacetylase activity (HeLa nuclear extract). In words: HDAC fluorescent activity assay (Fluor de Lys, Biomol). Type of experiment: biochemical. To be noted: IC50 allocated to ranges, read-out: HDAC activity. The procedure: The ability of compounds to inhibit histone deacetylase activities was measured using the commercially available HDAC fluorescent activity assay from Biomol. In brief, the Fluor de Lys™ substrate, a lysine with an epsilon-amino acetylation, is incubated with the source of histone deacetylase activity (HeLa nuclear extract) in the presence or absence of inhibitor. Deacetylation of the substrate sensitises the substrate to Fluor de Lys™ developer, which generates a fluorophore. Thus, incubation of the substrate with a source of HDAC activity results in an increase in signal that is diminished in the presence of an HDAC inhibitor.
Data are expressed as a percentage of the control, measured in the absence of inhibitor, with background signal being subtracted from all samples, as follows: % activity=[(S^i−B)/(S^o−B)]×100 where S^i is the signal in the presence of substrate, enzyme and inhibitor, S^o is the signal in the presence of substrate, enzyme and the vehicle in which the inhibitor is dissolved, and B is the background signal measured in the absence of enzyme.
IC50 values were determined by non-linear regression analysis, after fitting the results of eight data points to the equation for sigmoidal dose response with variable slope (% activity against log concentration of Compound), using Graphpad Prism software.
Histone deacetylase activity from crude nuclear extract derived from HeLa cells was used for screening. The preparation, purchased from 4C (Seneffe, Belgium), was prepared from HeLa cells harvested whilst in exponential growth phase. The nuclear extract was prepared according to the methodology described by J. D. Dignam, Nucl. Acid. Res., 1983, 11, 1475-1489, snap frozen in liquid nitrogen and stored at −80° C. The final buffer composition was 20 mM Hepes, 100 mM KCl, 0.2 mM EDTA, 0.5 mM DTT, 0.2 mM PMSF and 20% (v/v) glycerol.

Molecules are shown by their SMILES.

In the case of `CC(C)[C@H](NCc1ccc(CCC(=O)NO)cc1)C(=O)OC1CCCC1` [Example 42, Cyclopentyl N-{4-[3-(hydroxyamino)-3-oxopropyl]benzyl}-L-valinate], the IC50 with U937 cells was under 0.33 µM; with HUT78 cells it was 0.331 to 3.3 µM; in experiment [1], over 1 µM.
The corresponding values for `CC(C)(C)[C@H](NCc1ccc(CCC(=O)NO)cc1)C(=O)OC1CCCC1` [Example 43, Cyclopentyl N-{4-[3-(hydroxyamino)-3-oxopropyl]benzyl}-3-methyl-L-valinate] are 0.331 to 3.3 µM, 0.331 to 3.3 µM and over 1 µM.
The like results for `CC[C@H](C)[C@H](NCc1ccc(CCC(=O)NO)cc1)C(=O)OC(C)(C)C` [Example 44, tert-Butyl N-{4-[3-(hydroxyamino)-3-oxopropyl]benzyl}isoleucinate] were, in that order, 0.331 to 3.3 µM, 0.331 to 3.3 µM and 0.101 to 1 µM.
The corresponding values for `CC(C)C[C@H](NCc1ccc(CCC(=O)NO)cc1)C(=O)O[C@@H]1C[C@H](C)CC[C@H]1C(C)C` [Example 45, (1R,2S,5R)-2-Isopropyl-5-methylcyclohexyl N-{4-[3-(hydroxyamino)-3-oxopropyl]benzyl}-L-leucinate] are under 0.33 µM, 0.331 to 3.3 µM and over 1 µM.
In the case of `CC(C)[C@@H]1CC[C@@H](C)C[C@H]1OC(=O)[C@@H](NCc1ccc(CCC(=O)NO)cc1)C1CCCCC1` [Example 46, (1R,2S,5R)-2-Isopropyl-5-methylcyclohexyl (2S)-cyclohexyl({4-[3-(hydroxyamino)-3-oxopropyl]benzyl}amino)acetate], the IC50 with U937 cells was over 3.3 µM; with HUT78 cells it was over 3.3 µM; in experiment [1], over 1 µM.
As for `CC(C)[C@H](NCc1ccc(CCC(=O)NO)cc1)C(=O)OC(C)(C)C` [Example 47, tert-Butyl N-{4-[3-(hydroxyamino)-3-oxopropyl]benzyl}-L-valinate], the IC50 in the experiment with U937 cells was over 3.3 µM; in the experiment with HUT78 cells, 0.331 to 3.3 µM; in experiment [1], over 1 µM.
In the case of `CC(C)[C@H]1CC[C@H](C)C[C@@H]1OC(=O)[C@@H](NCc1ccc(CCC(=O)NO)cc1)C1CCCCC1` [Example 48, (1S,2R,5S)-2-Isopropyl-5-methylcyclohexyl (2S)-cyclohexyl({4-[3-(hydroxyamino)-3-oxopropyl]benzyl}amino)acetate], the IC50 is 0.331 to 3.3 µM in the experiment with U937 cells, 0.331 to 3.3 µM in the experiment on HUT78 cells and over 1 µM in experiment [1].
With `O=C(CCc1cccc(CN[C@H](C(=O)OC2CCCC2)C2CCCCC2)c1)NO` [Example 50, Cyclopentyl (2S)-cyclohexyl({3-[3-(hydroxyamino)-3-oxopropyl]benzyl}amino)acetate], the IC50 in the experiment on U937 cells was in the range of 0.331 to 3.3 µM; with HUT78 cells it was 0.331 to 3.3 µM; in experiment [1] it was 0.101 to 1 µM.
With `O=C(CCc1cccc(CN[C@H](C(=O)OC2CCCC2)c2ccccc2)c1)NO` [Example 51, Cyclopentyl (2S)-({3-[3-(hydroxyamino)-3-oxopropyl]benzyl}amino)(phenyl)acetate], the IC50 in the experiment with U937 cells was over 3.3 µM; in the experiment with HUT78 cells it was over 3.3 µM; in experiment [1] it was over 1 µM.
On to `CC(C)C[C@H](NCc1cccc(CCC(=O)NO)c1)C(=O)OC1CCCC1` [Example 52, Cyclopentyl N-{3-[3-(hydroxyamino)-3-oxopropyl]benzyl}-L-leucinate], for which the IC50 is 0.331 to 3.3 µM with U937 cells, over 3.3 µM with HUT78 cells and over 1 µM in experiment [1].
Consider `O=C(/C=C/c1ccc(CN[C@H](C(=O)OC2CCCC2)C2CCCCC2)cn1)NO` [Example 53, Cyclopentyl (2S)-cyclohexyl[({6-[(1E)-3-(hydroxyamino)-3-oxoprop-1-en-1-yl]pyridin-3-yl}methyl)amino]acetate], for which the IC50 was under 0.33 µM in the experiment on U937 cells, under 0.33 µM in the experiment on HUT78 cells and under 0.1 µM in experiment [1].
Consider `CC(C)C[C@H](NCc1ccc(/C=C/C(=O)NO)nc1)C(=O)OC1CCCC1` [Example 54, Cyclopentyl N-({6-[(1E)-3-(hydroxyamino)-3-oxoprop-1-en-1-yl]pyridin-3-yl}methyl)-L-leucinate], for which the results for the IC50 (in the experiment with U937 cells; with HUT78 cells; in experiment [1]) were under 0.33 µM, 0.331 to 3.3 µM and under 0.1 µM, respectively.
The corresponding values for `CC(C)(C)OC(=O)[C@@H](NCc1ccc(/C=C/C(=O)NO)nc1)C1CCCCC1` [Example 59, tert-Butyl (2S)-cyclohexyl[({6-[(1E)-3-(hydroxyamino)-3-oxoprop-1-en-1-yl]pyridin-3-yl}methyl)amino]acetate] are under 0.33 µM, under 0.33 µM and under 0.1 µM.
The corresponding values for `O=C(/C=C/c1ccc(CN[C@H](C(=O)OC2CCCC2)c2ccccc2)cn1)NO` [Example 60, Cyclopentyl (2S)-[({6-[(1E)-3-(hydroxyamino)-3-oxoprop-1-en-1-yl]pyridin-3-yl}methyl)amino](phenyl)acetate] are under 0.33 µM, under 0.33 µM and under 0.1 µM.
The like results for `CC(C)(C)OC(=O)[C@@H](NCc1ccc(/C=C/C(=O)NO)nc1)c1ccccc1` [Example 61, tert-Butyl (2S)-[({6-[(1E)-3-(hydroxyamino)-3-oxoprop-1-en-1-yl]pyridin-3-yl}methyl)amino](phenyl)acetate] were, in that order, under 0.33 µM, under 0.33 µM and under 0.1 µM.
Consider `O=C(CCc1ccc(CN[C@H](C(=O)OC2CCCC2)C2CCCCC2)cn1)NO` [Example 62, Cyclopentyl (2S)-cyclohexyl[({6-[3-(hydroxyamino)-3-oxopropyl]pyridin-3-yl}methyl)amino]acetate], for which the results for the IC50 (with U937 cells; in the experiment on HUT78 cells; in experiment [1]) were under 0.33 µM, 0.331 to 3.3 µM and under 0.1 µM, respectively.
With `CC(C)(C)OC(=O)[C@@H](NCc1ccc(CCC(=O)NO)nc1)c1ccccc1` [Example 64, tert-Butyl (2S)-[({6-[3-(hydroxyamino)-3-oxopropyl]pyridin-3-yl}methyl)amino](phenyl)acetate], the IC50 in the experiment with U937 cells is 0.331 to 3.3 µM; in the experiment on HUT78 cells, 0.331 to 3.3 µM; in experiment [1] it was 0.101 to 1 µM.
Regarding `O=C(CCc1ccc(CN[C@H](C(=O)OC2CCCC2)c2ccccc2)cn1)NO` [Example 65, Cyclopentyl (2S)-[({6-[3-(hydroxyamino)-3-oxopropyl]pyridin-3-yl}methyl)amino](phenyl)acetate], the IC50 was under 0.33 µM with U937 cells, 0.331 to 3.3 µM with HUT78 cells and 0.101 to 1 µM in experiment [1].
As to `CC(C)C[C@H](NCc1ccc(CCC(=O)NO)nc1)C(=O)OC(C)(C)C` [Example 66, tert-Butyl N-({6-[3-(hydroxyamino)-3-oxopropyl]pyridin-3-yl}methyl)-L-leucinate], the IC50 with U937 cells was under 0.33 µM; in the experiment on HUT78 cells it was 0.331 to 3.3 µM; in experiment [1] it was under 0.1 µM.
`CC(C)C[C@H](NCc1ccc(CCC(=O)NO)nc1)C(=O)O[C@@H]1C[C@H](C)CC[C@H]1C(C)C` [Example 67, (1R,2S,5R)-2-Isopropyl-5-methylcyclohexyl N-({6-[3-(hydroxyamino)-3-oxopropyl]pyridin-3-yl}methyl)-L-leucinate]: the IC50 is under 0.33 µM in the experiment with U937 cells, 0.331 to 3.3 µM in the experiment with HUT78 cells and 0.101 to 1 µM in experiment [1].
Consider `O=C(/C=C/c1ccc(CN[C@H](C(=O)OC2CCCC2)C2CCCCC2)nc1)NO` [Example 68, Cyclopentyl (2S)-cyclohexyl[({5-[(1E)-3-(hydroxyamino)-3-oxoprop-1-en-1-yl]pyridin-2-yl}methyl)amino]acetate], for which the IC50 in the experiment with U937 cells is under 0.33 µM; in the experiment with HUT78 cells, 0.331 to 3.3 µM; in experiment [1], under 0.1 µM.
For the compound `CC(C)C[C@H](NCc1ccc(/C=C/C(=O)NO)cn1)C(=O)OC(C)(C)C` [Example 69, tert-Butyl N-({5-[(1E)-3-(hydroxyamino)-3-oxoprop-1-en-1-yl]pyridin-2-yl}methyl)-L-leucinate], the values for the IC50 (with U937 cells; in the experiment on HUT78 cells; in experiment [1]) were 0.331 to 3.3 µM, 0.331 to 3.3 µM and 0.101 to 1 µM, respectively.
For the compound `O=C(CCc1ccc(CN[C@H](C(=O)OC2CCCC2)C2CCCCC2)nc1)NO` [Example 70, Cyclopentyl (2S)-cyclohexyl[({5-[3-(hydroxyamino)-3-oxopropyl]pyridin-2-yl}methyl)amino]acetate], the values for the IC50 (in the experiment with U937 cells; with HUT78 cells; in experiment [1]) were under 0.33 µM, 0.331 to 3.3 µM and 0.101 to 1 µM, respectively.

The values above are taken from patent US9273003B2, “Methods of treating lymphoma and rheumatoid arthritis with cyclopentyl (2S)-cyclohexyl[({6-[3-(hydroxyamino)-3-oxopropyl]pyridin-3-yl}methyl)amino]acetate” (GlaxoSmithKline Intellectual Property Development Limited, priority 2006, dated 2016).
